From ChEMBL document CHEMBL3758163, “Extended structure-activity study of thienopyrimidine-based EGFR inhibitors with evaluation of drug-like properties” (Eur J Med Chem, 2016)

Assays:
[1] = biological target: Platelet-derived growth factor receptor alpha (Homo sapiens) (UniProt P16234); test: Inhibition of PDGFRA (unknown origin) at 500 nM
[2] = biological target: Tyrosine-protein kinase Fyn (Homo sapiens) (UniProt P06241); test: Inhibition of FYN (unknown origin) at 500 nM
[3] = biological target: Tyrosine-protein kinase Lyn (Homo sapiens) (UniProt P07948); test: Inhibition of LYN B (unknown origin) at 500 nM
Tyrosine-protein kinase Lyn (Homo sapiens), sequence (P07948 2-512 limits assumed): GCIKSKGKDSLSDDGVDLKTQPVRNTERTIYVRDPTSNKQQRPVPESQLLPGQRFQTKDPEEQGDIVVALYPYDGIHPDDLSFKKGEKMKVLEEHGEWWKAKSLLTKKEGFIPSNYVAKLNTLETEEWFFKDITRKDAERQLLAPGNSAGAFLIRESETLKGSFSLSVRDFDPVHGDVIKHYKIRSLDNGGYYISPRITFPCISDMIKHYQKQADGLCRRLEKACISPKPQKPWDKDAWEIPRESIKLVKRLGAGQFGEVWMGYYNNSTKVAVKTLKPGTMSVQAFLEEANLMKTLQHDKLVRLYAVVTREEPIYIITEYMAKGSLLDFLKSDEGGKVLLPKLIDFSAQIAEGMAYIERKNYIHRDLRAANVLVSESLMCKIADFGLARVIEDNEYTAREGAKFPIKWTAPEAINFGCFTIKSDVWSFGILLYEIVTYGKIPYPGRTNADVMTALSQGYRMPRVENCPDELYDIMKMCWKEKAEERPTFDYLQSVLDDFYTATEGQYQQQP

[4] = biological target: Tyrosine-protein kinase SYK (Homo sapiens) (UniProt P43405); test: Inhibition of SYK (unknown origin) at 500 nM
[5] = biological target: T1, Testis-specific serine/threonine-protein kinase 2 (Homo sapiens) (UniProt Q96PF2); test: Inhibition of STK22B (unknown origin) at 500 nM
T1 sequence (whole entry): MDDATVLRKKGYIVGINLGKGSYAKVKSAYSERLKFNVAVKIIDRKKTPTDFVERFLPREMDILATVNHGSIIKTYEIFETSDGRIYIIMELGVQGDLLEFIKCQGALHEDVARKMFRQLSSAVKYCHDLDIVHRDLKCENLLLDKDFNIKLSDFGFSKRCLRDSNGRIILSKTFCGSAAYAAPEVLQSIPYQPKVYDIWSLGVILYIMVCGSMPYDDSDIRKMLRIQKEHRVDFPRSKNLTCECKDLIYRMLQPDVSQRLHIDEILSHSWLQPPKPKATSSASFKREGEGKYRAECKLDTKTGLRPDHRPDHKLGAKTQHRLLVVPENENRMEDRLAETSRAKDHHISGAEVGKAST

[6] = biological target: Tyrosine-protein kinase ABL1 (Homo sapiens) (UniProt P00519); test: Inhibition of ABL1 (unknown origin) at 500 nM
Tyrosine-protein kinase ABL1 (Homo sapiens), sequence (P00519 whole entry): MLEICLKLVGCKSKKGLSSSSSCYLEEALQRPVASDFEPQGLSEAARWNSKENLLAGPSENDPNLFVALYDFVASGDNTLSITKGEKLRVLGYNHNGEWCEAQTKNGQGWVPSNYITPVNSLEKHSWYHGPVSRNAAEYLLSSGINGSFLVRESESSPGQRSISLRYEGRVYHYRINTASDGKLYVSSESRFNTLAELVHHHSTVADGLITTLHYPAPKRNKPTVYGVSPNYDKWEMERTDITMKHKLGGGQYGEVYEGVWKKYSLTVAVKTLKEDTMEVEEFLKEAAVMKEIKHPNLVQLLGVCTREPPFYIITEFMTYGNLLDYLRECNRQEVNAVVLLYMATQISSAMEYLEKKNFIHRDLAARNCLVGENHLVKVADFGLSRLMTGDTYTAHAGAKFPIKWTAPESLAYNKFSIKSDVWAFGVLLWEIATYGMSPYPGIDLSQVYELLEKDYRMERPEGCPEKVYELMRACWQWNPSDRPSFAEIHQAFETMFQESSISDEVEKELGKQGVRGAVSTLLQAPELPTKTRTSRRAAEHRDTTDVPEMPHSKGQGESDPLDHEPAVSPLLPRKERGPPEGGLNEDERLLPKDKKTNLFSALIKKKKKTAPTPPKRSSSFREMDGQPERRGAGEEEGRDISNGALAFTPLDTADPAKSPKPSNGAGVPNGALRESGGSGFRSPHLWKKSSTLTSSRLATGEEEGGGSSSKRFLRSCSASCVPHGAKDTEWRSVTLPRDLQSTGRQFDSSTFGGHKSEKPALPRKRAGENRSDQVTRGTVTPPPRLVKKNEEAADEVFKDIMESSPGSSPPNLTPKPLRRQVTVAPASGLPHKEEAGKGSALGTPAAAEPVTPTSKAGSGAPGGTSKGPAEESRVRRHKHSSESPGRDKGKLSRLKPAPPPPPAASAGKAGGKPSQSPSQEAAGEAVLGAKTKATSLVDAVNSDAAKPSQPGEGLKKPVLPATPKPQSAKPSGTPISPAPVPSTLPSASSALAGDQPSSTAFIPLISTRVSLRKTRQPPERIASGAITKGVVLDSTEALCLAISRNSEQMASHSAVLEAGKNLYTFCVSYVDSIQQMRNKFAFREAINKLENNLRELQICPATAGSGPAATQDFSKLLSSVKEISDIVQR

[7] = biological target: Glycogen synthase kinase-3 beta (Homo sapiens) (UniProt P49841); test: Inhibition of GSK3B (unknown origin) at 500 nM
[8] = biological target: T2, Ephrin type-A receptor 1 (Homo sapiens) (UniProt P21709); test: Inhibition of EPHA1 (unknown origin) at 500 nM
T2 sequence (whole entry): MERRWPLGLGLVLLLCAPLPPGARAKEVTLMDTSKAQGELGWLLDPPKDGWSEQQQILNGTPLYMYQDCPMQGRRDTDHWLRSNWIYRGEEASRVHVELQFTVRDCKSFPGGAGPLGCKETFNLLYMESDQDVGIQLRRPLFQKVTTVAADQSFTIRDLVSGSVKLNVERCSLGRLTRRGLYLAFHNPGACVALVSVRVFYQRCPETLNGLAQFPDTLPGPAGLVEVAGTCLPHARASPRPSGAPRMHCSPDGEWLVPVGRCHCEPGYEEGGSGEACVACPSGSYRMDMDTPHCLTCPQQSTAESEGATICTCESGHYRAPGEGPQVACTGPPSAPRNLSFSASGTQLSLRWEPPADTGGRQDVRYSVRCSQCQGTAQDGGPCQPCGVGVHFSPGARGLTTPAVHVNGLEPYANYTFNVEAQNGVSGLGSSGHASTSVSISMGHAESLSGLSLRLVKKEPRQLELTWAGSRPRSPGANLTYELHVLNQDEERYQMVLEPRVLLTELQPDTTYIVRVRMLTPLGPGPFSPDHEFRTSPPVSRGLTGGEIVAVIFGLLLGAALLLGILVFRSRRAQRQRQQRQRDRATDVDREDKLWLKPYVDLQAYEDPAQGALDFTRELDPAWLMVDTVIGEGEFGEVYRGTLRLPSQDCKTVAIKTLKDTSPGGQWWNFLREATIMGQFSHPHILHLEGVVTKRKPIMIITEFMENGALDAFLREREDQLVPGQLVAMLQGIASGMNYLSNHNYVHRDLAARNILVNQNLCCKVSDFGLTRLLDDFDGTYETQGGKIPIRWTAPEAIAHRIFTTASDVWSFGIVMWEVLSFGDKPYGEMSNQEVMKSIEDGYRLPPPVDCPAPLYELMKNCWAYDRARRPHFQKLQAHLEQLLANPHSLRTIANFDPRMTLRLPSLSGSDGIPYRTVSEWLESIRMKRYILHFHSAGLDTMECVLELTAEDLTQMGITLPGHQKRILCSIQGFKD

[9] = biological target: Proto-oncogene tyrosine-protein kinase Src (Homo sapiens) (UniProt P12931); test: Inhibition of SRC (unknown origin) at 500 nM
Proto-oncogene tyrosine-protein kinase Src (Homo sapiens), sequence (P12931 2-536 limits assumed): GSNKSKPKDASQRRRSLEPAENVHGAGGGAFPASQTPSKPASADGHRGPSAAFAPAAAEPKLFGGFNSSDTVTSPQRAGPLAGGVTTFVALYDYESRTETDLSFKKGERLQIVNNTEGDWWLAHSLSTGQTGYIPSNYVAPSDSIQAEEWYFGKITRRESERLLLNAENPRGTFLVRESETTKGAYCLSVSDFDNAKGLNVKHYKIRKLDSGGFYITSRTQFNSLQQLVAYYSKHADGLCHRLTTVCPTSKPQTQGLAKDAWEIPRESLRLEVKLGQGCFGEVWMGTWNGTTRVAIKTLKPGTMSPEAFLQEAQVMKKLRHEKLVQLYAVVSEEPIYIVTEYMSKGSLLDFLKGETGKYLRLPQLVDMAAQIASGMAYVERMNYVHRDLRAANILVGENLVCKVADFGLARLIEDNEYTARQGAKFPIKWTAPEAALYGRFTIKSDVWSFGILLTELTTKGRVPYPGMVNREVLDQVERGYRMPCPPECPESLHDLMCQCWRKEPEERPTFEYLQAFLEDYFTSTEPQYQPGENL

[10] = biological target: Angiopoietin-1 receptor (Homo sapiens) (UniProt Q02763); test: Inhibition of TEK (unknown origin) at 500 nM
Angiopoietin-1 receptor (Homo sapiens), sequence (Q02763 whole entry): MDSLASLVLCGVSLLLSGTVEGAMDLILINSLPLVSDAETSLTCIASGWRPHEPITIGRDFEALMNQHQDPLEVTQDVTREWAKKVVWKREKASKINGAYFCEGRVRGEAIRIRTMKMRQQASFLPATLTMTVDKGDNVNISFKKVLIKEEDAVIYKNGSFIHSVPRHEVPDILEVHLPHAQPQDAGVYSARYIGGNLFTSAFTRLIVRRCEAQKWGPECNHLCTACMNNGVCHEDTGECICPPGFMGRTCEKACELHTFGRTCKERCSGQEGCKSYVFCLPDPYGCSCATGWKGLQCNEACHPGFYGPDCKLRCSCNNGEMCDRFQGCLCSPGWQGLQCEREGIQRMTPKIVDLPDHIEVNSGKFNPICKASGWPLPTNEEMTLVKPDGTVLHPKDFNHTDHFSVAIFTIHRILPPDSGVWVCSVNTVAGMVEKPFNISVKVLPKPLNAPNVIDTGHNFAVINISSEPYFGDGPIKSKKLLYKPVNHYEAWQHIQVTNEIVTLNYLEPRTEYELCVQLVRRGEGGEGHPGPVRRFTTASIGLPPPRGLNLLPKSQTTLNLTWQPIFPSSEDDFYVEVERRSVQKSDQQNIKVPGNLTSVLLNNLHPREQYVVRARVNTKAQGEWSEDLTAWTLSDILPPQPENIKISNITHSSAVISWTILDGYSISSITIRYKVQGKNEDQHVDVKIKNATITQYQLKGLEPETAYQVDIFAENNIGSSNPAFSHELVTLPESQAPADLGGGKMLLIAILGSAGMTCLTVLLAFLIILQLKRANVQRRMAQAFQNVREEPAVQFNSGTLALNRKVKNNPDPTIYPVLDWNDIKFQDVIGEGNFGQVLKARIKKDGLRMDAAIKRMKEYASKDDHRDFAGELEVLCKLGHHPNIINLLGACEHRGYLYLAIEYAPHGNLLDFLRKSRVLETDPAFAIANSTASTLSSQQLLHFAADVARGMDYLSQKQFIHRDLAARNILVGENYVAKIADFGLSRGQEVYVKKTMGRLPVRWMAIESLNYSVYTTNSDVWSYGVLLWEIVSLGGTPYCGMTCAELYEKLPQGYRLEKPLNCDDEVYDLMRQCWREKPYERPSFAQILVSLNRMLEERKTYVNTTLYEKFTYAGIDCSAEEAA

[11] = biological target: T3, Inhibitor of nuclear factor kappa-B kinase subunit beta (Homo sapiens) (UniProt O14920); test: Inhibition of IKBKB (unknown origin) at 500 nM
T3 sequence (whole entry): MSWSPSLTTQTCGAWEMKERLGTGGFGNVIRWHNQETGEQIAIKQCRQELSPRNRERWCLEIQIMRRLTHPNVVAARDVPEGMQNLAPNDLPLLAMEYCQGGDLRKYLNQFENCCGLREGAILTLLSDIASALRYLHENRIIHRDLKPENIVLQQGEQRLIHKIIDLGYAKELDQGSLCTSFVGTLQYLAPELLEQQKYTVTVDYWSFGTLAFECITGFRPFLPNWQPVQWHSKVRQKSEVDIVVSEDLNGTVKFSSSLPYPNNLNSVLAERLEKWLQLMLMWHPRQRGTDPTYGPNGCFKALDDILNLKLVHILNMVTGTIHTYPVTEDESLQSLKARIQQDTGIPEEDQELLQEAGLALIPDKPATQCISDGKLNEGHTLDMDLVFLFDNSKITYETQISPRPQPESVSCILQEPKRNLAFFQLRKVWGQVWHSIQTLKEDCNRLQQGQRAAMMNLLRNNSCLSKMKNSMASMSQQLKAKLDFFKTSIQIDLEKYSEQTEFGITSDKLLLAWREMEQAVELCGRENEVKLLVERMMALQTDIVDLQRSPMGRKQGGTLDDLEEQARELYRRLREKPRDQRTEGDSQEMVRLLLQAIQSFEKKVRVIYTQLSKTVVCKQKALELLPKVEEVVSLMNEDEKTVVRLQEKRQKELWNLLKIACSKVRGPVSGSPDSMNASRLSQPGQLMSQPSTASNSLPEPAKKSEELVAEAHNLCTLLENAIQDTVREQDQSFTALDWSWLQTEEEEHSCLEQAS

[12] = biological target: Hepatocyte growth factor receptor (Homo sapiens) (UniProt P08581); test: Inhibition of MET (unknown origin) at 500 nM
[13] = biological target: Mitogen-activated protein kinase 14 (Homo sapiens) (UniProt Q16539); test: Inhibition of MAPK14 (unknown origin) at 500 nM
Mitogen-activated protein kinase 14 (Homo sapiens), sequence (Q16539 whole entry): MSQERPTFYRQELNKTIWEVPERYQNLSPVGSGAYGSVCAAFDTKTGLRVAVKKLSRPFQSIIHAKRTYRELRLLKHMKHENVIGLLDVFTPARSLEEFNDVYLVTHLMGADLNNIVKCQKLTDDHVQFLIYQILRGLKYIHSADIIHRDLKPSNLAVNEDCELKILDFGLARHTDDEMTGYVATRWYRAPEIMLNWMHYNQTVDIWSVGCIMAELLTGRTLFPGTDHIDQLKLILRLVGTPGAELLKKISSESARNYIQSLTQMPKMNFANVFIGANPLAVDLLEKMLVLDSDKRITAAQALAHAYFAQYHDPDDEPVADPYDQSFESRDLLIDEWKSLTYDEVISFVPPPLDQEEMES

[14] = biological target: MAP kinase-activated protein kinase 2 (Homo sapiens) (UniProt P49137); test: Inhibition of MAPKAPK2 (unknown origin) at 500 nM
MAP kinase-activated protein kinase 2 (Homo sapiens), sequence (P49137 whole entry, looked up): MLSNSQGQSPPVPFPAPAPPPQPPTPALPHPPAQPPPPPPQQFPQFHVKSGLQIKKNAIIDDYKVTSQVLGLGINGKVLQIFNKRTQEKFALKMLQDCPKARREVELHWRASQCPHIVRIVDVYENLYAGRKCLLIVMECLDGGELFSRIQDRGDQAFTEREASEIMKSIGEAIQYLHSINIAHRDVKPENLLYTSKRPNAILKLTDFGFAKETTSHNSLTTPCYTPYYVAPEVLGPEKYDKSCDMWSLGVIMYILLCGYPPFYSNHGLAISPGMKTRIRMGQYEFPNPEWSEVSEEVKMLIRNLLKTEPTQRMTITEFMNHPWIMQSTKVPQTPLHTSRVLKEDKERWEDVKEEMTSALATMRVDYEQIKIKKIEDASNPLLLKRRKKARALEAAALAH

[15] = biological target: Mast/stem cell growth factor receptor Kit (Homo sapiens) (UniProt P10721); test: Inhibition of KIT (unknown origin) at 500 nM
Mast/stem cell growth factor receptor Kit (Homo sapiens), sequence (P10721 whole entry): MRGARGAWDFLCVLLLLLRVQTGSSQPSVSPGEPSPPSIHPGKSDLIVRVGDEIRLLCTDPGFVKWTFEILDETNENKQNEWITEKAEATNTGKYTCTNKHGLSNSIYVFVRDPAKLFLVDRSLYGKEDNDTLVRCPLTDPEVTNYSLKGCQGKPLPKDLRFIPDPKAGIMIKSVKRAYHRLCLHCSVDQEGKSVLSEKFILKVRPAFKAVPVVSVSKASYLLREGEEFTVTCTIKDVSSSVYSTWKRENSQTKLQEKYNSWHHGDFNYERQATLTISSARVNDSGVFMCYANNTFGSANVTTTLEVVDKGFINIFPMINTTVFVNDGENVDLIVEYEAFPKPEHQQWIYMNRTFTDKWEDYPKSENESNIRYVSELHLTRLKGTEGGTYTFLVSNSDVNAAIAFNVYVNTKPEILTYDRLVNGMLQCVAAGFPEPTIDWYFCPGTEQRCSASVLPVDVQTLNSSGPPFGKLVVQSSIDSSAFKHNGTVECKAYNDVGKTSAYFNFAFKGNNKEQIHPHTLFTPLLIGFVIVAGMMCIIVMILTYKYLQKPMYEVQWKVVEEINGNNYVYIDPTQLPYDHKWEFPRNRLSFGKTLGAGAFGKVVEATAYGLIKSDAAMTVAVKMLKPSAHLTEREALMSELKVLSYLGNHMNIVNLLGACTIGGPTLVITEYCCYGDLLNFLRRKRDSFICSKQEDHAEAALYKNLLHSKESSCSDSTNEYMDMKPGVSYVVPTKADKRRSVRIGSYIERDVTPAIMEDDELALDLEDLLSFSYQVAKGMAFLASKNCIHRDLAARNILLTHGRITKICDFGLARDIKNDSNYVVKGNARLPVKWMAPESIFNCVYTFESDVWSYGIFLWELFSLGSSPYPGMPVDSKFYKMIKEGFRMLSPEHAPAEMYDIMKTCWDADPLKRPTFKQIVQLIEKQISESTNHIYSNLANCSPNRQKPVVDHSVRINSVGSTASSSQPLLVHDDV

[16] = Half-life in human liver microsomes at 3 uM by LC-MS/MS analysis; format: ADME

Compound | inhibition [1] | inhibition [2] | inhibition [3] | inhibition [4] | inhibition [5] | inhibition [6] | inhibition [7] | inhibition [8] | inhibition [9] | inhibition [10] | inhibition [11] | inhibition [12] | inhibition [13] | inhibition [14] | inhibition [15] | half-life at 3 µM [16]
C#Cc1cccc(Nc2ncnc3sc(-c4ccc(CO)cc4OC)cc23)c1 | -9% | 0% | 9% | 16% | 2% | -3% | 8% | 2% | 15% | -1% | -4% | – | – | – | – | –
COc1cc(C(N)=O)ccc1-c1cc2c(N[C@H](CO)c3ccccc3)ncnc2s1 | 0% | 16% | 57% | 17% | 11% | 4% | 17% | 12% | 20% | 7% | 3% | -5% | 6% | -7% | -9% | 308 min
C[C@@H](Nc1ncnc2sc(-c3ccc(C(=O)NCCN(C)C)cc3)cc12)c1ccccc1 | 15% | 19% | 41% | 7% | 11% | 1% | 5% | 11% | 18% | 3% | 7% | – | 7% | – | -5% | –
COc1cc(CO)ccc1-c1cc2c(Nc3ccc(F)c(Cl)c3)ncnc2s1 | 5% | 5% | 15% | 11% | 1% | 19% | 4% | 12% | 14% | 11% | 1% | -5% | 6% | 3% | 1% | 156 min
COc1cc(CO)ccc1-c1cc2c(N[C@H](CO)c3ccccc3)ncnc2s1 | 1% | 12% | 56% | 10% | 8% | 22% | 8% | 1% | 9% | 13% | 1% | 3% | 13% | 8% | 1% | 154 min
C[C@@H](Nc1ncnc2sc(-c3ccccc3C(N)=O)cc12)c1ccccc1 | -7% | 7% | 16% | 6% | 5% | -5% | 6% | 11% | 12% | 0% | 6% | – | 9% | -8% | -7% | –
COc1cc(CO)ccc1-c1cc2c(N[C@H](C)c3ccccc3)ncnc2s1 | 1% | 1% | 57% | 8% | 8% | 7% | 7% | 1% | 10% | 1% | 10% | 15% | 1% | 1% | 7% | –
CN(C)CCNC(=O)c1ccc(-c2cc3c(N[C@H](CO)c4ccccc4)ncnc3s2)cc1 | 10% | 23% | 37% | 23% | 1% | 27% | 3% | 15% | 17% | 9% | 3% | -3% | 9% | 2% | 1% | 66 min
COc1cc(CO)ccc1-c1cc2c(Nc3ccccc3)ncnc2s1 | 7% | 6% | 22% | 38% | 9% | 20% | 5% | 13% | 17% | 8% | 4% | 7% | 8% | 4% | 11% | –
COc1ccc(C(=O)NCCN(C)C)cc1-c1cc2c(N[C@H](C)c3ccccc3)ncnc2s1 | -3% | 8% | 62% | 2% | 0% | 6% | 13% | 7% | 9% | -3% | 3% | -9% | 8% | -1% | -1% | 116 min
C#Cc1cccc(Nc2ncnc3cc(OCCOC)c(OCCOC)cc23)c1 [ERLOTINIB] | – | – | – | – | – | 75% | -8% | 3% | 42% | 5% | -5% | 11% | 13% | -1% | – | 32 min
